Data: PubChem BioAssay (NCI)
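Test compounds were applied to cells in 96-well plates for 48 hours at 5 doses. GI50: concentration for 50% inhibition of growth. TGI marks complete inhibition of growth.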

What was measured:
Assay in all cases: NCI-60 cell line screen, 48 h
CCRF-CEM leukemia = test system: CCRF-CEM leukemia
HCT-116 colon = test system: HCT-116 colon
HL-60(TB) leukemia = test system: HL-60(TB) leukemia
HT29 colon = test system: HT29 colon
IGROV1 ovarian = test system: IGROV1 ovarian
K-562 leukemia = test system: K-562 leukemia
NCI-H226 lung = test system: NCI-H226 lung
RXF 393 renal = test system: RXF 393 renal
SK-MEL-5 melanoma = test system: SK-MEL-5 melanoma
786-0 renal = test system: 786-0 renal

Structure (SMILES) | GI50 (CCRF-CEM leukemia) | TGI (CCRF-CEM leukemia) | GI50 (HCT-116 colon) | TGI (HCT-116 colon) | GI50 (HL-60(TB) leukemia) | TGI (HL-60(TB) leukemia) | GI50 (HT29 colon) | TGI (HT29 colon) | GI50 (IGROV1 ovarian) | TGI (IGROV1 ovarian) | GI50 (K-562 leukemia) | TGI (K-562 leukemia) | GI50 (NCI-H226 lung) | TGI (NCI-H226 lung) | GI50 (RXF 393 renal) | TGI (RXF 393 renal) | GI50 (SK-MEL-5 melanoma) | TGI (SK-MEL-5 melanoma) | TGI (786-0 renal)
CN1CCN(Cc2c[nH]c3c2C(=O)c2c(c(O)c4ccccc4c2O)C3=O)CC1 | 3.51 µM | 18.5 µM | 1.92 µM | 10.5 µM | 10.3 µM | 70.4 µM | 26.3 µM | > 100 µM | 3.74 µM | 23.4 µM | 2.82 µM | > 100 µM | 16.8 µM | 36.5 µM | 6.22 µM | 19 µM | 14 µM | 26.9 µM | –
CNc1nnc(CCCCCCCCc2nnc(NC)o2)o1 | – | 43 µM | – | 41.9 µM | – | > 100 µM | – | 90.8 µM | – | > 100 µM | – | > 100 µM | – | > 100 µM | – | > 100 µM | – | > 100 µM | 47 µM
C=C(C(=O)O[C@H]1C/C(C)=C/CC/C(CO)=C/[C@H]2C(=O)OC(=C)[C@H]12)C(O)CO (stereo partly drawn) | – | 4.92 µM | – | 19.6 µM | – | 10.4 µM | – | 38.7 µM | – | 39.5 µM | – | 14.8 µM | – | 37.7 µM | – | 25.9 µM | – | 29.1 µM | 18.4 µM
ClC(Cl)(Cl)C1CCOC1n1nnc2ccccc21 (stereo not drawn) | – | > 100 µM | – | > 100 µM | – | 58.2 µM | – | > 100 µM | – | > 100 µM | – | 63.9 µM | – | > 100 µM | – | > 100 µM | – | > 100 µM | > 100 µM
c1nc(NCCc2cnc[nH]2)c2[nH]cnc2n1 | – | > 100 µM | – | > 100 µM | – | > 100 µM | – | > 100 µM | – | > 100 µM | – | > 100 µM | – | > 100 µM | – | > 100 µM | – | > 100 µM | > 100 µM
O=C1CCCNn2c(nc3ncccc3c2=O)N1 | – | > 100 µM | – | > 100 µM | – | > 100 µM | – | > 100 µM | – | > 100 µM | – | > 100 µM | – | > 100 µM | – | > 100 µM | – | > 100 µM | > 100 µM
NCCCN(CCCCN(CCCN)C(=O)OCc1ccccc1)C(=O)OCc1ccccc1 | – | > 100 µM | – | > 100 µM | – | > 100 µM | – | > 100 µM | – | > 100 µM | – | > 100 µM | – | > 100 µM | – | > 100 µM | – | > 100 µM | > 100 µM
COC(=O)C1CC2(C)C=CC1N(C(=O)OCc1ccccc1)C2 (stereo not drawn) | – | > 100 µM | – | > 100 µM | – | 70.7 µM | – | > 100 µM | – | > 100 µM | – | > 100 µM | – | > 100 µM | – | > 100 µM | – | > 100 µM | > 100 µM
O=C(/C(=C(/O)c1ccccc1)c1nc2ccccc2sc1=O)c1ccccc1 | – | 6.51 µM | – | > 100 µM | – | 20.7 µM | – | 72.3 µM | – | > 100 µM | – | 45 µM | – | 72.8 µM | – | > 100 µM | – | 54.3 µM | > 100 µM
